Measurements from patent US6638948B1, “Amorphous paroxetine composition” (Pentech Pharmaceuticals, Inc., priority 1996, dated 2003).

Assays:
[1] = Stability testing: specimen stored in a glass container with HDPE liner, opened and closed periodically, exposing it to atmospheric moisture; moisture and appearance noted; format: physicochemical
Protocol: To a reaction flask containing 100 ml of absolute ethanol was added 13.9 g of paroxetine base. The flask was shaken until a clear solution was obtained. To this paroxetine solution, 10 ml of a solution of hydrochloric acid in absolute ethanol (22% v/v) was added dropwise. As the reaction proceeded to completion, the color of the solution changed from a yellow brown to a pink brown. The product was then vacuum dried in a rotary evaporator. A foamy, amorphous solid was obtained (lot # W951027). The produced amorphous solid was subjected to an additional 2.5 days of drying in a desiccator at reduced pressure. The solid, a free-flowing powder, was tested for composition by NMR and FTIR. The findings were consistent with published spectra for paroxetine. Silver nitrate testing of the solid indicated the presence of chloride in the sample. […] Residual moisture was determined by Karl-Fisher coulometric method at 0.7%. […] X-ray powder diffraction was performed using the powder pack method. The powder patterns were obtained using a Philips PW1710 automated diffractometer, with monochromatized CuKα, (Kα1=1.54060 Å; Kα2=1.54438 Å) radiation. The diffractometer was equipped with a compensating slit and a graphite monochromator. It was calibrated to 0.02° (2θ) using the quartz peak at 26.66θ° (2θ). The minimum peak/background ratio was 0.75. This spectrum is consistent with an amorphous solid form. The halo effect is clearly seen and the intensity is small. Differential scanning calorimetry was performed on the solid at two different heating rates.
A specimen (0.5 g) was stored in a glass container with a HDPE liner for stability testing. The container was opened and closed periodically exposing the specimen to atmospheric moisture. Moisture determination was conducted at intervals of about 3 months.
A solution of paroxetine hydrochloride in absolute ethanol (3.2 g/100 ml) was prepared as described in EXAMPLE 1. The solution was charged into a spray-drying machine (Yamato Chemical Co.) using a standard nozzle (0.1 mm orifice). The inlet temperature was set at 90 degrees Celsius and the outlet temperature at 60 degrees Celsius. The sample was spray dried to a fine, off-white powder (lot # W951026). Following recovery, the material was transferred to a vacuum desiccator and dried under partial vacuum for an additional 2.5 days. The resulting solid, a free-flowing powder, was tested for composition by NMR and FTIR. The findings were consistent with published spectra for paroxetine. Silver nitrate solution addition to an aqueous solution of the powder produced a white precipitate indicative of chloride. […] Residual moisture in the product was 0.8% measured by Karl-Fisher coulometric method. A sample was analyzed by HPLC and found to be free from related substances (purity>99%). This spectrum is consistent with an amorphous form. Differential scanning calorimetry was conducted on the solid.
For stability testing a specimen (9 g) was stored in a glass container with a HDPE liner. The container was opened and closed periodically exposing the specimen to atmospheric moisture. Moisture determination was conducted at intervals of about 3 months.

[2] = reported by Barnes et al. (U.S. Pat. No. 4,721,723); cited from earlier work
[3] = 3 months storage, periodic exposure to atmospheric moisture
[4] = 6 months storage, periodic exposure to atmospheric moisture
[5] = Initial, Karl-Fisher coulometric method

Compound	APPEARANCE [1, 3]	MOISTURE [1, 3]	APPEARANCE [1, 4]	MOISTURE [1, 4]	APPEARANCE ([1]; Initial)	MOISTURE [1, 5]	hygroscopicity [2]
Cl.Fc1ccc([C@@H]2CCNC[C@H]2COc2ccc3c(c2)OCO3)cc1 [lot #W951027, (−)-trans4R-(4′-fluorophenyl)-3S-[(3′4′-methylenedioxy-phenoxy)methyl]-piperidine]	Free-flowing	1.8% w/w	Free-flowing	2.1% w/w	Free-flowing	0.7% w/w	–
Cl.Fc1ccc([C@@H]2CCNC[C@H]2COc2ccc3c(c2)OCO3)cc1 [Amorphous paroxetine hydrochloride, (−)-trans4R-(4′-fluorophenyl)-3S-[(3′4′-methylenedioxy-phenoxy)methyl]-piperidine]	–	–	–	–	–	–	undesirably hygroscopic
Cl.Fc1ccc([C@@H]2CCNC[C@H]2COc2ccc3c(c2)OCO3)cc1 [lot #W951026, (−)-trans4R-(4′-fluorophenyl)-3S-[(3′4′-methylenedioxy-phenoxy)methyl]-piperidine]	Free-flowing	2.1% w/w	Free-flowing	2.2% w/w	Free-flowing	0.8% w/w	–
